# The supplement of paper PMC11061612
# Tests used:
# [1] = compound: COc1cccc2c1C(=O)c1c(O)c3c(c(O)c1C2=O)C[C@@](O)(C(=O)CO)C[C@@H]3O[C@H]1C[C@H](N)[C@H](O)[C@H](C)O1 [Doxorubicin]; conditions: max 1 µM
# Procedure, shortened: (§1)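 Following 24 hours at 37°C and 5% CO2, cancer cell lines in 1536-well plates with 7.5 μl DMEM/F12 or RPMI and 10% FBS were dosed for 72 hours, final DMSO typically being 0.2%. CellTiter-Glo 2.0 luminescence, scaled between blank-well and DMSO-well means, gave the viability readout. Dose responses were fitted to a two-parameter logistic curve with a non-linear mixed effects model, and the single-agent IC50 was derived from this fit.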
# [2] = compound: COc1cccc(OCCCN)c1-c1cc(Nc2cnc(C#N)cn2)n[nH]1 [Prexasertib]; conditions: max 1 µM
# Procedure, shortened: as §1
# [3] = compound: Cn1cnc2c(F)c(Nc3ccc(Br)cc3Cl)c(C(=O)NOCCO)cc21 [Selumetinib]; conditions: max 10 µM
# Procedure, shortened: as §1
# [4] = compound: C[C@@H](c1ccc2nccn2c1)n1nnc2ncc(-c3cnn(C)c3)nc21 [Savolitinib]; conditions: max 1 µM
# Procedure, shortened: as §1
# [5] = compound: C[C@@H]1COCCN1C2=NC(=NC(=C2)C3(CC3)[S@](=N)(=O)C)C4=C5C=CNC5=NC=C4 [AZD6738]; conditions: max 10 µM
# Procedure, shortened: as §1
# [6] = compound: CC(C)n1c(=O)n(C)c2cnc3cc(F)c(-c4ccc(OCCCN5CCCCC5)nc4)cc3c21 [AZD1390]; conditions: max 0.3 µM
# Procedure, shortened: as §1
# [7] = compound: CS(=O)(=O)CCNCc1ccc(-c2ccc3ncnc(Nc4ccc(OCc5cccc(F)c5)c(Cl)c4)c3c2)o1 [Lapatinib]; conditions: max 10 µM
# Procedure, shortened: as §1
# [8] = compound: CC(=O)Nc1cccc(-n2c(=O)n(C3CC3)c(=O)c3c(Nc4ccc(I)cc4F)n(C)c(=O)c(C)c32)c1 [Trametinib]; conditions: max 1 µM
# Procedure, shortened: as §1
# [9] = compound: COc1cc(Nc2ncc3c(n2)-c2ccc(Cl)cc2C(c2c(F)cccc2OC)=NC3)ccc1C(=O)O [Alisertib]; conditions: max 10 µM
# Procedure, shortened: as §1
# [10] = compound: CCN(CCO)CCCOc1ccc2c(Nc3cc(CC(=O)Nc4cccc(F)c4)[nH]n3)ncnc2c1 [AZD2811]; conditions: max 1 µM
# Procedure, shortened: as §1
# [11] = compound: Cc1c2c(nn1C)CSCc1cc(n(C)n1)CSc1cc(c3ccccc3c1)OCCCc1c(C(=O)O)n(C)c3c-2c(Cl)ccc13 [AZD5991]; conditions: max 1 µM
# Procedure, shortened: as §1
# [12] = compound: CC(=O)c1c(C)c2cnc(Nc3ccc(N4CCNCC4)cn3)nc2n(C2CCCC2)c1=O [Palbociclib]; conditions: max 10 µM
# Procedure, shortened: as §1
# [13] = compound: Cc1nc(-c2cn3c(n2)-c2ccc(-c4cnn(C(C)(C)C(N)=O)c4)cc2OCC3)n(C(C)C)n1 [Taselisib]; conditions: max 10 µM
# Procedure, shortened: as §1
# [14] = compound: CN(CC[C@H](CSC1=CC=CC=C1)NC2=C(C=C(C=C2)S(=O)(=O)NC(=O)C3=CC=C(C=C3)N4CCC(CC4)[C@H](C5=CC=CC=C5C6=CC=C(C=C6)Cl)O)S(=O)(=O)C(F)(F)F)CCO [AZD4320]; conditions: max 1 µM
# Procedure, shortened: as §1
# [15] = compound: CC1=CN2[C@@H](C1)C=NC3=CC(=C(C=C3C2=O)OC)OCCCCCOC4=C(C=C5C(=C4)N=C[C@@H]6CC(=CN6C5=O)C)OC [SG3199]; conditions: max 0.001 µM
# Procedure, shortened: as §1
# [16] = compound: O=c1[nH]cc(F)c(=O)[nH]1 [5-Fluorouracil]; conditions: max 20 µM
# Procedure, shortened: as §1
# [17] = compound: C[C@@H](Nc1cc(F)cc(F)c1)c1cc(C(=O)N(C)C)cc2c(=O)cc(N3CCOCC3)oc12 [AZD8186]; conditions: max 10 µM
# Procedure, shortened: as §1
# [18] = compound: Cc1cc2ncnn2cc1Nc1ncc2c(n1)n(C1CCOCC1)c(=O)n2C [AZD7648]; conditions: max 10 µM
# Procedure, shortened: as §1
# [19] = compound: CCc1c2c(nc3ccc(O)cc13)-c1cc3c(c(=O)n1C2)COC(=O)[C@]3(O)CC [SN-38]; conditions: max 0.3 µM
# Procedure, shortened: as §1
# [20] = compound: C[C@@H](Oc1cc(-c2cnn(C3CCNCC3)c2)cnc1N)c1c(Cl)ccc(F)c1Cl [Crizotinib]; conditions: max 10 µM
# Procedure, shortened: as §1
# [21] = compound: CC(=O)O[C@H]1C(=O)[C@@]2(C)[C@H]([C@H](OC(=O)c3ccccc3)[C@]3(O)C[C@H](OC(=O)[C@H](O)[C@@H](NC(=O)c4ccccc4)c4ccccc4)C(C)=C1C3(C)C)[C@]1(OC(C)=O)CO[C@@H]1C[C@@H]2O [Paclitaxel]; conditions: max 3 µM
# Procedure, shortened: as §1
# [22] = compound: N#Cc1cnc(Nc2cc(NC[C@H]3CNCCO3)c(C(F)(F)F)cn2)cn1 [SRA737]; conditions: max 10 µM
# Procedure, shortened: as §1
# [23] = compound: C1CN(CCC1(C(=O)N[C@@H](CCO)C2=CC=C(C=C2)Cl)N)C3=NC=NC4=C3C=CN4 [AZD5363]; conditions: max 10 µM
# Procedure, shortened: as §1
# [24] = compound: COc1cc([C@@H]2c3cc4c(cc3[C@@H](O[C@@H]3O[C@@H]5CO[C@@H](C)O[C@H]5[C@H](O)[C@H]3O)[C@H]3COC(=O)[C@H]23)OCO4)cc(OC)c1O [Etoposide]; conditions: max 10 µM
# Procedure, shortened: as §1
# [25] = compound: O=C(Nc1ccc2[nH]nc(-c3ccncc3)c2c1)[C@@H]1CCN(CC(=O)N2CCN(c3ccc(-c4ncccn4)cc3)CC2)C1; conditions: max 5 µM
# Procedure, shortened: as §1
# [26] = compound: CN(C)CCCOc1ccc(-c2ccc3ncc4c(c3c2)n(C2CCOCC2)c(=O)n4C)cn1 [AZD0156]
# Procedure, shortened: as §1
# [27] = compound: COc1cc2ncnc(Nc3ccc(F)c(Cl)c3)c2cc1OCCCN1CCOCC1 [Gefitinib]; conditions: max 10 µM
# Procedure, shortened: as §1
# [28] = compound: COc1nnc2ccc(N3CCC(c4ccc(OCCN5CCN(C)C(=O)[C@H]5C)cc4)CC3)nn12 [AZD5153]; conditions: max 1 µM
# Procedure, shortened: as §1
# [29] = compound: NC1(c2ccc(-c3nc4ccn5c(=O)[nH]nc5c4cc3-c3ccccc3)cc2)CCC1 [MK-2206]; conditions: max 10 µM
# Procedure, shortened: as §1
# [30] = compound: Nc1ccn([C@@H]2O[C@H](CO)[C@@H](O)C2(F)F)c(=O)n1 [Gemcitabine]; conditions: max 0.3 µM
# Procedure, shortened: as §1
# [31] = compound: CC1(C)CCC(CN2CCN(c3ccc(C(=O)NS(=O)(=O)c4ccc(NCC5CCOCC5)c([N+](=O)[O-])c4)c(Oc4cnc5[nH]ccc5c4)c3)CC2)=C(c2ccc(Cl)cc2)C1 [Venetoclax]; conditions: max 1 µM
# Procedure, shortened: as §1
# [32] = compound: C=CCn1c(=O)c2cnc(Nc3ccc(N4CCN(C)CC4)cc3)nc2n1-c1cccc(C(C)(C)O)n1 [AZD1775]
# Procedure, shortened: as §1
# [33] = compound: O=C(c1cc(Cc2n[nH]c(=O)c3ccccc23)ccc1F)N1CCN(C(=O)C2CC2)CC1 [Olaparib]; conditions: max 10 µM
# Procedure, shortened: as §1
# [34] = compound: C1CC(C1)(C(=O)[O-])C(=O)[O-].N.N.[Pt+2] [Carboplatin]; conditions: max 10 µM
# Procedure, shortened: as §1
# [35] = compound: CC1=C(C(=CC=C1)Cl)NC(=O)C2=CN=C(S2)NC3=CC(=NC(=N3)C)N4CCN(CC4)CCO [Dasatinib]; conditions: max 2 µM
# Procedure, shortened: as §1
Cell Line,"IC50, cell viability 72 h [1]","IC50, cell viability 72 h [2]","IC50, cell viability 72 h [3]","IC50, cell viability 72 h [4]","IC50, cell viability 72 h [5]","IC50, cell viability 72 h [6]","IC50, cell viability 72 h [7]","IC50, cell viability 72 h [8]","IC50, cell viability 72 h [9]","IC50, cell viability 72 h [10]","IC50, cell viability 72 h [11]","IC50, cell viability 72 h [12]","IC50, cell viability 72 h [13]","IC50, cell viability 72 h [14]","IC50, cell viability 72 h [15]","IC50, cell viability 72 h [16]","IC50, cell viability 72 h [17]","IC50, cell viability 72 h [18]","IC50, cell viability 72 h [19]","IC50, cell viability 72 h [20]","IC50, cell viability 72 h [21]","IC50, cell viability 72 h [22]","IC50, cell viability 72 h [23]","IC50, cell viability 72 h [24]","IC50, cell viability 72 h [25]","IC50, cell viability 72 h ([26]; max 3 µM)","IC50, cell viability 72 h [27]","IC50, cell viability 72 h [28]","IC50, cell viability 72 h [29]","IC50, cell viability 72 h [30]","IC50, cell viability 72 h [31]","IC50, cell viability 72 h ([32]; max 3 µM)","IC50, cell viability 72 h [33]","IC50, cell viability 72 h [34]","IC50, cell viability 72 h [35]","IC50, cell viability 72 h ([26]; max 1 µM)","IC50, cell viability 72 h ([32]; max 1 µM)"
HDLM-2 (Hodgkin's Lymphoma),> 1 µM,0.504 µM,> 10 µM,> 1 µM,> 10 µM,> 0.3 µM,> 10 µM,> 1 µM,> 10 µM,> 1 µM,0.119 µM,> 10 µM,> 10 µM,0.0826 µM,> 0.001 µM,> 20 µM,> 10 µM,> 10 µM,0.206 µM,> 10 µM,0.0274 µM,> 10 µM,> 10 µM,6.08 µM,> 5 µM,> 3 µM,> 10 µM,0.936 µM,> 10 µM,> 0.3 µM,> 1 µM,0.387 µM,> 10 µM,> 10 µM,> 2 µM,,
HMV-II (Melanoma),0.79 µM,> 1 µM,0.606 µM,> 1 µM,> 10 µM,> 0.3 µM,> 10 µM,0.00878 µM,> 10 µM,> 1 µM,> 1 µM,> 10 µM,5.06 µM,> 1 µM,> 0.001 µM,> 20 µM,> 10 µM,> 10 µM,0.127 µM,> 10 µM,0.31 µM,> 10 µM,> 10 µM,> 10 µM,0.502 µM,> 3 µM,> 10 µM,0.463 µM,> 10 µM,0.139 µM,> 1 µM,1.16 µM,> 10 µM,> 10 µM,> 2 µM,,
HO-1-u-1 (Oral Cavity Carcinoma),> 1 µM,0.0288 µM,> 10 µM,> 1 µM,3.16 µM,> 0.3 µM,7.6 µM,> 1 µM,6.33 µM,> 1 µM,> 1 µM,> 10 µM,0.618 µM,> 1 µM,> 0.001 µM,> 20 µM,> 10 µM,> 10 µM,0.239 µM,> 10 µM,0.82 µM,6.17 µM,1.31 µM,> 10 µM,4.14 µM,> 3 µM,> 10 µM,> 1 µM,> 10 µM,> 0.3 µM,> 1 µM,0.816 µM,> 10 µM,> 10 µM,0.532 µM,,
Hs-633T (Other Solid Carcinomas),0.38 µM,0.0814 µM,> 10 µM,> 1 µM,3.3 µM,> 0.3 µM,> 10 µM,0.656 µM,9.06 µM,> 1 µM,> 1 µM,> 10 µM,7.46 µM,> 1 µM,> 0.001 µM,> 20 µM,> 10 µM,> 10 µM,0.0382 µM,7 µM,0.0304 µM,> 10 µM,> 10 µM,5.07 µM,3.36 µM,> 3 µM,> 10 µM,0.57 µM,> 10 µM,0.0145 µM,> 1 µM,0.472 µM,> 10 µM,> 10 µM,0.334 µM,,
MDA-MB-468 (Breast Carcinoma),> 1 µM,0.618 µM,> 10 µM,,6.88 µM,> 0.3 µM,9.24 µM,0.415 µM,1.52 µM,> 1 µM,> 1 µM,> 10 µM,> 10 µM,0.67 µM,> 0.001 µM,> 20 µM,9.07 µM,> 10 µM,0.04 µM,> 10 µM,0.111 µM,> 10 µM,> 10 µM,> 10 µM,> 5 µM,> 3 µM,,> 1 µM,9.17 µM,0.263 µM,> 1 µM,1.79 µM,> 10 µM,> 10 µM,> 2 µM,,
RH-18 (Rhabdomyosarcoma),0.909 µM,> 1 µM,,,> 10 µM,,,,,> 1 µM,,,,,> 0.001 µM,,,> 10 µM,> 0.3 µM,,,,,,,,,,,,,,> 10 µM,,,> 1 µM,> 1 µM
